The record followed here is patent US3992540A, “3-Quinoline-substituted 4-oxy-carboxamides” (Roussel-UCLAF, priority 1974, dated 1976).

In data set [1] the test system is stretchings provoked by intraperitoneal injection of acetic acid to mice. Nature of the data set: Analgesic activity, acetic acid stretching (writhing) test in mice (Koster et al). The data set is classed as in vivo. The following applies: Mus musculus, oral, 30 minutes before acetic acid injection (100 mg/kg i.p.), stretchings totaled over 15 minutes, read-out: DA50, dose which reduced by 50% the number of stretchings as compared to the controls. Here is the method:
The test was based on that of Koster et al [Fed. Proc., Vol. 18 (1959), p. 412] in which the intraperitoneal injection of acetic acid to mice provokes repeated stretching and twisting movements which persist for more than 6 hours. Analgesics prevent or suspress these syndromes which are considered to be an exteriorization of a diffuse abdominal pain. A 1% solution of acetic acid in water was used at a dose of 0.01 ml/g or 100 mg/kg of acetic acid to release the syndrome.
The test product was orally administered 30 minutes before the acetic acid injection and the mice were fasted for 24 hours before the start of the test. The stretchings for the mice were observed and totaled for each mouse in a 15 minutes observation period starting just after the acetic acid injection. The results were expressed as DA50, that dose which reduced by 50% the number of stretchings as compared to the controls and the DA50 for N-[2-thiazolyl]-4-hydroxy-8 -trifluoromethyl-3-quinoline-carboxamide was 5 mg/kg; for N-[2 -thiazolyl]-4-hydroxy-8-chloro-3-quinoline-carboxamide was 4 mg/kg; and for N-[2-thiazolyl]-4-hydroxy-7-trifluoromethyl- 3-quinoline-carboxamide was 7 mg/kg.
In general terms: An intraperitoneal irritant provokes the stretching counted in writhing tests.

Data set [2] is described as follows: Acute toxicity in mice, intraperitoneal. The following applies: mouse, in vivo, ip, observed for a week, graphically determined by Miller et al method, read-out: DL50. Here is the method: The acute toxicity was determined on groups of 10 mice weighing between 18-22 g and the test product was administered intraperitoneally in increasing dose in suspensions at 0.25 % in carboxymethyl-cellulose added of Tween 80.

The test system of data set [3] is mice. The following applies: mouse, in vivo, po, 500 mg/kg.

`O=C(Nc1nccs1)c1cnc2cc(C(F)(F)F)ccc2c1O` [N-[2-thiazolyl]-4-hydroxy-7-trifluoromethyl-3-quinoline-carboxamide]: in data set [1], the ED50 turned out to be 7 mg/kg.
Regarding `O=C(Nc1nccs1)c1cnc2c(Cl)cccc2c1O` [N-[2-thiazolyl]-4-hydroxy-8-chloro-3-quinoline-carboxamide], in data set [1], the ED50 came to 4 mg/kg.
For the compound `O=C(Nc1nccs1)c1cnc2c(C(F)(F)F)cccc2c1O` [N-[2-thiazolyl]-4-hydroxy-8-trifluoromethyl-3-quinoline-carboxamide], the ED50 in data set [1] was found to be 5 mg/kg. In addition, the LD50 at 168 h in data set [2] amounted to 225 mg/kg. Moreover, in data set [3], the “tolerance when orally administered” value is listed as “very well tolerated”.
